In general, DC50 refers to the concentration at which degradation of the target reaches its halfway point. Usually IC50 stands for the concentration at which inhibition is half-maximal.

Molecules are shown by their SMILES. Activity calls are given as the source filed them. The calls are words filed in the database; no cut-off is given here.

Results on 8 compounds are retold here after ChEMBL document CHEMBL4680217, “Discovery of PROTAC BCL-X degraders as potent anticancer agents with low on-target platelet toxicity” (Eur J Med Chem, 2020).

In data set [1] the target is T1, Protein cereblon/Bcl-2-like protein 1 (Homo sapiens, UniProt Q07817+Q96SW2). Kind of data set: Protac activity at CRBN/BCL-XL in human MOLT-4 cells assessed as induction of BCL-XL degradation measured after 16 hrs by immunoblotting analysis. In kind it is cell-based. For orientation: Immunoblotting shows a protein as a band on a membrane.
Target sequence in this assay (Q07817 whole entry): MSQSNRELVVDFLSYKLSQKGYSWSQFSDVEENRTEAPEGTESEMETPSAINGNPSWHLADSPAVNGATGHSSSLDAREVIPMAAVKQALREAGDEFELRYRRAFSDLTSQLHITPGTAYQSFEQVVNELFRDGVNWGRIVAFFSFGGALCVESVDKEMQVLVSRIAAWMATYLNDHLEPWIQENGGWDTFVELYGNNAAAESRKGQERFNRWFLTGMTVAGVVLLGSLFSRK
Target sequence in this assay (Q96SW2 whole entry): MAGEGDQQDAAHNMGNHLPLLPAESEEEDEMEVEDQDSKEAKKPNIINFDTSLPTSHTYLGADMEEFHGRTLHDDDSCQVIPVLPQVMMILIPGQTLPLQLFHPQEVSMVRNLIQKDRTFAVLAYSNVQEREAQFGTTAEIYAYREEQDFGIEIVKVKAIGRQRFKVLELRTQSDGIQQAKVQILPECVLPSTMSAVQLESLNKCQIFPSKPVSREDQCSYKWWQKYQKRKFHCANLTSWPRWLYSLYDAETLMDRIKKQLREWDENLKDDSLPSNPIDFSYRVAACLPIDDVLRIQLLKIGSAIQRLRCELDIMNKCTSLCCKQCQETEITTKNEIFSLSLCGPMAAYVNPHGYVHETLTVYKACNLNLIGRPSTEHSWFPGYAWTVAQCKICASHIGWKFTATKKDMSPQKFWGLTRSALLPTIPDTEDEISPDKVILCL
A short description of data set [2]: Selectivity index, ratio of IC50 for human platelet to IC50 for human MOLT-4 cells.
For a further data set, the system named is RS4-11. The data set is described as follows: Antiproliferative activity against human RS4-11 cells assessed as reduction in cell viability measured after 48 hrs by MTS assay. The conditions noted are these: RS4-11, 48 h. In kind it is functional, cell-based.
Data set [3] deals with Protein cereblon/Apoptosis regulator Bcl-2 (Homo sapiens) (UniProt P10415+Q96SW2). Kind of data set: Protac activity at CRBN/BCL2 in human MOLT-4 cells assessed as induction of BCL2 degradation at 50 nM measured after 16 hrs by immunoblotting analysis. The data set is classed as cell-based.
Sequence of Protein cereblon/Apoptosis regulator Bcl-2 (Homo sapiens) (P10415 whole entry, looked up): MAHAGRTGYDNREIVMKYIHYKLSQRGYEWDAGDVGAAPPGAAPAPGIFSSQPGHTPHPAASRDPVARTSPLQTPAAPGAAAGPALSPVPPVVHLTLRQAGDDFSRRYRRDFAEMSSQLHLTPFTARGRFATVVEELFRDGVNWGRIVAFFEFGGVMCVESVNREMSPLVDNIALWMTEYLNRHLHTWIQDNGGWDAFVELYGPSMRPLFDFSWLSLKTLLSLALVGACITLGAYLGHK
Sequence of Protein cereblon/Apoptosis regulator Bcl-2 (Homo sapiens) (Q96SW2 whole entry, looked up): as the sequence (Q96SW2 whole entry) above
The next data set concerns NCI-H146. The data set is described as follows: Antiproliferative activity against human NCI-H146 cells assessed as reduction in cell viability measured after 48 hrs by MTS assay. The data set is classed as functional, cell-based. The note with it: NCI-H146, 48 h. In general terms: Tetrazolium assays rely on reduction of a dye to a coloured formazan, in cell work by metabolically active cells.

The nature of data set [4]: Toxicity in human platelet assessed as reduction in cell viability measured after 48 hrs by MTS assay. The note with it: human platelets. In kind it is tissue-based.
In data set [5] the target is T1, Protein cereblon/Bcl-2-like protein 1. The data set is described as follows: Protac activity at CRBN/BCL-XL in human MOLT-4 cells assessed as induction of BCL-XL degradation by measuring remaining BCL-XL level at 50 nM measured after 16 hrs by immunoblotting analysis relative to control. In kind it is cell-based.
Target sequence in this assay (Q07817 whole entry, looked up): as the sequence (Q07817 whole entry) above
Target sequence in this assay (Q96SW2 whole entry, looked up): as the sequence (Q96SW2 whole entry) above
The next data set relates to MOLT-4. Kind of data set: Antiproliferative activity against human MOLT-4 cells assessed as reduction in cell viability measured after 48 hrs by MTS assay. In kind it is functional, cell-based. The note with it: MOLT-4, 48 h.
Data set [6] addresses von Hippel-Lindau disease tumor suppressor/Apoptosis regulator Bcl-2 (Homo sapiens) (UniProt P10415+P40337). Kind of data set: Protac activity at VHL/BCL2 in human MOLT-4 cells assessed as induction of BCL2 degradation at 100 nM measured after 16 hrs by immunoblotting analysis. In kind it is cell-based.
In data set [7] the target is von Hippel-Lindau disease tumor suppressor/Bcl-2-like protein 1 (Homo sapiens, UniProt Q07817+P40337). The data set is described as follows: Protac activity at VHL/BCL-XL in human MOLT-4 cells assessed as induction of BCL-XL degradation by measuring remaining BCL-XL level at 100 nM measured after 16 hrs by immunoblotting analysis relative to control. The data set is classed as cell-based.
Sequence of von Hippel-Lindau disease tumor suppressor/Bcl-2-like protein 1 (P40337 whole entry, looked up): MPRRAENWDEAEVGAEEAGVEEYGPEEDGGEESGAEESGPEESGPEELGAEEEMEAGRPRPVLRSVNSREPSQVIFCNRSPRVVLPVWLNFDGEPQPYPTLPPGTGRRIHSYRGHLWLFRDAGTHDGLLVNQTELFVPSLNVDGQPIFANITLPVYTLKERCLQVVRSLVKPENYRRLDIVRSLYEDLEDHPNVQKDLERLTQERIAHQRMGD
Sequence of von Hippel-Lindau disease tumor suppressor/Bcl-2-like protein 1 (Q07817 whole entry, looked up): as the sequence (Q07817 whole entry) above

Sequence of von Hippel-Lindau disease tumor suppressor/Apoptosis regulator Bcl-2 (Homo sapiens) (P10415 whole entry, looked up): as the sequence (P10415 whole entry, looked up) above
Sequence of von Hippel-Lindau disease tumor suppressor/Apoptosis regulator Bcl-2 (Homo sapiens) (P40337 whole entry, looked up): as the sequence (P40337 whole entry, looked up) above

For the compound `O=C1CCC(N2C(=O)c3cccc(NCCOCCOCc4cn(CCCC(=O)N5CCN(CC#Cc6ccc(OCCCc7sc(N8CCc9cccc(C(=O)Nc%10nc%11ccccc%11s%10)c9C8)nc7C(=O)O)c(F)c6)CC5)nn4)c3C2=O)C(=O)N1` (configuration not stated), the DC50 in [1] worked out at 50 nM.

As for `CN(CCCCCCCn1cc(COCCOCCNc2cccc3c2C(=O)N([C@@H]2CCC(=O)NC2=O)C3=O)nn1)CC[C@H](CSc1ccccc1)Nc1ccc(S(=O)(=O)NC(=O)c2ccc(N3CCN(CC4=C(c5ccc(Cl)cc5)CCC(C)(C)C4)CC3)cc2)cc1S(=O)(=O)C(F)(F)F`, in data set [2], the “Ratio IC50” value was determined as 214. Besides, the IC50 with RS4-11 came out at 62.2 nM; in the data set with NCI-H146, 61.7 nM; with MOLT-4, 29.2 nM. For the same compound, the result in data set [3] was inactive. Also, in [1], the DC50 came to 6.3 nM. Moreover, in data set [4], the IC50 at 48 h came out at 6250 nM. Moreover, the Activity in data set [5] was found to be 18%.

For `CN(CCCNc1cccc2c1C(=O)N([C@@H]1CCC(=O)NC1=O)C2=O)CC[C@H](CSc1ccccc1)Nc1ccc(S(=O)(=O)NC(=O)c2ccc(N3CCN(CC4=C(c5ccc(Cl)cc5)CCC(C)(C)C4)CC3)cc2)cc1S(=O)(=O)C(F)(F)F`, the “Ratio IC50” value in data set [2] amounted to 101. The figures for the IC50 with RS4-11, in the data set with NCI-H146 and with MOLT-4 were 129 nM, 70.2 nM and 32.5 nM, respectively. The result in data set [3] was inactive. The DC50 in [1] worked out at 10.6 nM. Also, the half-maximal inhibitory concentration (IC50) at 48 h in data set [4] was 3300 nM. Besides, the Activity in data set [5] worked out at 31%.

Regarding `Cc1ncsc1-c1ccc([C@H](C)NC(=O)[C@@H]2C[C@@H](O)CN2C(=O)[C@@H](NC(=O)CCCCCC(=O)N(C)CC[C@H](CSc2ccccc2)Nc2ccc(S(=O)(=O)NC(=O)c3ccc(N4CCN(CC5=C(c6ccc(Cl)cc6)CCC(C)(C)C5)CC4)cc3)cc2S(=O)(=O)C(F)(F)F)C(C)(C)C)cc1`, the result in data set [6] was inactive. For the same compound, the Activity in data set [7] worked out at 78%. In addition, the concentration for half-maximal inhibition (IC50) with MOLT-4 is > 2000 nM.

`Cc1ncsc1-c1ccc([C@H](C)NC(=O)[C@@H]2C[C@@H](O)CN2C(=O)[C@@H](NC(=O)CCCCCCCCCN(C)CC[C@H](CSc2ccccc2)Nc2ccc(S(=O)(=O)NC(=O)c3ccc(N4CCN(CC5=C(c6ccc(Cl)cc6)CCC(C)(C)C5)CC4)cc3)cc2S(=O)(=O)C(F)(F)F)C(C)(C)C)cc1`: in data set [6], the result was inactive. Also, the Activity in data set [7] was 62%. The concentration for half-maximal inhibition (IC50) with MOLT-4 turned out to be 1060 nM.

Consider `Cc1ncsc1-c1ccc([C@H](C)NC(=O)[C@@H]2C[C@@H](O)CN2C(=O)[C@@H](NC(=O)CCOCCC(=O)N2CCN(CC[C@H](CSc3ccccc3)Nc3ccc(S(=O)(=O)NC(=O)c4ccc(N5CCN(CC6=C(c7ccc(Cl)cc7)CCC(C)(C)C6)CC5)cc4)cc3S(=O)(=O)C(F)(F)F)CC2)C(C)(C)C)cc1`, for which the outcome in data set [6] was inactive. For the same compound, the Activity in data set [7] is 62%. For the same compound, the IC50 with MOLT-4 worked out at 324 nM.

On to `Cc1ncsc1-c1ccc([C@H](C)NC(=O)[C@@H]2C[C@@H](O)CN2C(=O)[C@@H](NC(=O)COCCOCC(=O)N2CCN(CC[C@H](CSc3ccccc3)Nc3ccc(S(=O)(=O)NC(=O)c4ccc(N5CCN(CC6=C(c7ccc(Cl)cc7)CCC(C)(C)C6)CC5)cc4)cc3S(=O)(=O)C(F)(F)F)CC2)C(C)(C)C)cc1`, for which the outcome in data set [6] was inactive. Besides, the Activity in [7] was 79%. Besides, the IC50 in the data set with MOLT-4 stood at 512 nM.

As to `Cc1ncsc1-c1ccc([C@H](C)NC(=O)[C@@H]2C[C@@H](O)CN2C(=O)[C@@H](NC(=O)CCCCCCCN2CCN(CC[C@H](CSc3ccccc3)Nc3ccc(S(=O)(=O)NC(=O)c4ccc(N5CCN(CC6=C(c7ccc(Cl)cc7)CCC(C)(C)C6)CC5)cc4)cc3S(=O)(=O)C(F)(F)F)CC2)C(C)(C)C)cc1`, the outcome in data set [6] was inactive. Further, the Activity in data set [7] is 78%. In the data set with MOLT-4, the IC50 was found to be 181 nM.
